≈ marks a conversion by molar mass, not a printed value. Where a name gives a salt, the structure may show the parent alone. Read-outs that look alike come from different tables or passages of the source.
Key:
[1] = tested on: Colo205 (ATCC CCL 222): human colon adenocarcinoma; assay: In vitro antitumor activity, MTT assay, Colo205; type: cell-based; settings: for IC50: Homo sapiens; for IC50 (Colo205): Table 1, 48 hrs
Experimental: (§1) In vitro antitumor activity against human tumor cell lines
(§2) In vitro antitumor activity of the compounds according to the present invention was determined by MTT assay method against the following human tumor cell lines:
Colo205 (ATCC CCL 222): human colon adenocarcinoma
(§3) In this test, the known antineoplastic compounds, Doxorubicin and Sulofenur, were used as the comparative agents.
(§4) Each of the tumor cells was cultured in RPMI 1640 media containing 10% fetal bovine serum, 100 IU/ml penicillin and 100 μg/ml streptomycin, and then periodically subcultured once or twice per week in trypsin-EDTA solution containing 0.05% trypsin and 0.53mM EDTA.4Na. The human tumor cell line thus obtained (10,000cells/100 μl) was plated on 96-well microplate and then cultured for 24 hrs at 37° C. in a 5% CO2 incubator. Test compound was dissolved in DMSO, sterilized with 0.22 μm PVDF filter, and then serially 5-fold diluted from 40 μg/ml to 0.00256μg/ml. 100 μl of the sample solution thus prepared and RPMI 1640 medium only (control group) were added to 96-well microplate containing the human tumor cell, respectively. The final concentration of the test compound was in the range from 20 μg/ml to 0.00128 μg/ml and the concentration of DMSO was below 0.5%. The cells were cultured for 48 hrs at 37° C. in a 5% CO2 incubator. MTT(3-(4,5-Dimethylthiazole-2-yl)-e,5-diphenyltetrazoliumbromide) was dissolved in physiological saline in a concentration of 2 mg/ml and the resulting solution was filtered through 0.22 μm PTFE filter. 25 μl of MTT solution thus prepared was added to each well of 96-well microplate and incubated for additional 4 hrs at 37° C. in a 5% CO2 incubator. Then, the content of microplate was centrifuged at 1000 rpm for 10 min, and supernatant was removed by flicking. The formazan formed from MTT by mitochondrial succinate dehydrogenase was dissolved in 100 μl of DMSO. The absorbance of each well was measured at 540nm by micro ELISA reader and the cytotoxicity was calculated by dividing the absorbance of test group by the absorbance of control group. After the calculated cytotoxicity (%) was plotted, the concentration of 50% tumor growth inhibition concentration (IC50) was estimated by Linear-Regression method.

[2] = tested on: A549 (ATCC CCL 185): human lung carcinoma; assay: In vitro antitumor activity, MTT assay, A549; type: cell-based; settings: for IC50: Homo sapiens, A549, 48 h; for IC50 (A549): Table 1, 48 hrs
Experimental: as §1, §2
A549 (ATCC CCL 185): human lung carcinoma
as §3, §4

[3] = tested on: KB (ATCC CCL 17): human epidermoid carcinoma; assay: In vitro antitumor activity, MTT assay, KB; type: cell-based; settings: for IC50: Homo sapiens, read-out: IC50 (KB)
Experimental: as §1, §2
KB (ATCC CCL 17): human epidermoid carcinoma
as §3, §4

[4] = tested on: SK-OV-3 (ATCC HTB 77): human ovarian adenocarcinoma; assay: In vitro antitumor activity, MTT assay, SK-OV-3; type: cell-based; settings: for IC50: Homo sapiens; for IC50 (SK-OV-3): Table 1, 48 hrs
Experimental: as §1, §2
SK-OV-3 (ATCC HTB 77): human ovarian adenocarcinoma
as §3, §4

[5] = tested on: K562 (ATCC CCL 243): human chronic myelogenous leukemia; assay: In vitro antitumor activity, MTT assay, K562; type: cell-based; settings: Homo sapiens, K562, 48 h
Experimental: as §1, §2
K562 (ATCC CCL 243): human chronic myelogenous leukemia
as §3, §4

[6] = tested on: P388 murine leukemia cells; assay: In vivo antitumor activity against P388 murine leukemia cell; parameters: species or system BDF1 mouse; settings: 6.25 mg/kg i.p., once per 2 days for 10 days; median survival time
Experimental: In vivo antitumor activity against P388 murine leukemia cell
P388 murine leukemia cells were injected into BDF1 mouse intraperitoneally and grown in the peritoneal cavity. The P388 cells were periodically exudated and reinjected intraperitoneally into mouse for subculture.
The cells were exudated, washed, resuspended in saline (2×10^7 cells/ml), and then injected intraperitoneally again into BDF1 mouse (2×10^6 cells/0.1 ml).
Test compound dissolved in appropriate vehicle was administered intraperitonealy or orally into the mouse which was implanted with P388 murine leukemia tumor cells in the frequency of once per 2 days for 10 days. The vehicle was administered into the mouse of control group. Then, the number of live animals were daily checked to estimate the median survival time (MST).
T/C ratio(%) of each test compound was calculated according to the following formula, and the test results are shown in Table 6.
T/C(%)=(MST of test group.div.MST of control group)×100

[7] = COLO 205, Table 1, 48 hrs, read-out: IC50 (Colo205)
[8] = COLO 205, Table 2, 48 hrs, read-out: IC50 (Colo205)
[9] = COLO 205, Table 3, 48 hrs, read-out: IC50 (Col205)

IC50 [1, 8]	IC50 ([2]; Table 2)	IC50 ([3]; Table 2, MTT, 48 hrs)	IC50 ([4]; SK-OV-3, Table 2, 48 hrs)	Structure (SMILES)	other results
2.05 µg/mL (≈ 4.27 µM)	0.607 µg/mL (≈ 1.26 µM)	0.13 µg/mL (≈ 0.271 µM)	> 20 µg/mL	O=C(c1ccc(Cl)cc1)N1CCc2cc(S(=O)(=O)n3cc(-c4ccccc4)[nH]c3=O)ccc21 [Example 18, 4-phenyl-1-[N-(4-chlorobenzoyl)indoline-5-sulfonyl]-2-imidazolone]	–
3.8 µg/mL	3.24 µg/mL	0.688 µg/mL	3.08 µg/mL	CNCC(=O)N1c2ccc(S(=O)(=O)n3cc(-c4ccccc4)[nH]c3=O)cc2CC1C (stereo not shown) [Example 22, 4-phenyl-1-(N-methylaminoacetyl-2-methylindoline-5-sulfonyl)-2-imidazolone.HCl]	–
3.35 µg/mL	3.48 µg/mL	0.879 µg/mL	8.77 µg/mL	CC(C)NCC(=O)N1CCc2cc(S(=O)(=O)n3cc(-c4ccccc4)[nH]c3=O)ccc21 [Example 24, 4-phenyl-1-(N-isopropylaminoacetylindoline-5-sulfonyl)-2-imidazolone.HCl]	–
3.07 µg/mL	3.23 µg/mL	0.246 µg/mL	1.4 µg/mL	CC(C)CNCC(=O)N1c2ccc(S(=O)(=O)n3cc(-c4ccccc4)[nH]c3=O)cc2CC1C (stereo not shown) [Example 25, 4-phenyl-1-(N-isobutylaminoacetyl-2-methylindoline-5-sulfonyl)-2-imidazolone.HCl]	–
9.09 µg/mL	5.47 µg/mL	1.99 µg/mL	10.1 µg/mL	CC(C)CNCC(=O)N1CCc2cc(S(=O)(=O)n3cc(-c4ccccc4)[nH]c3=O)ccc21 [Example 26, 4-phenyl-1-(N-isobutylaminoacetylindoline-5-sulfonyl)-2-imidazolone.HCl]	–

Continued, compound first:

Structure (SMILES)	IC50 [1, 8]	IC50 ([2]; Table 2)	IC50 ([3]; Table 2, MTT, 48 hrs)	IC50 ([4]; SK-OV-3, Table 2, 48 hrs)	other results
COc1cccc2c1C(=O)c1c(O)c3c(c(O)c1C2=O)C[C@@](O)(C(=O)CO)C[C@@H]3O[C@H]1C[C@H](N)[C@H](O)[C@H](C)O1 [Doxorubicin, reference compound]	–	–	–	–	IC50 ([1]; COLO 205, 48 h, read-out: IC50 (Col205), Table 3): 6.3 µg/mL (≈ 11.6 µM); IC50 ([1]; COLO 205, 48 h, read-out: IC50 (Colo205), Table 1): 0.973 µg/mL (≈ 1.79 µM); IC50 ([1]; COLO 205, 48 h, read-out: IC50 (Colo205), Table 5): 0.961 µg/mL (≈ 1.77 µM); IC50 ([2]; Table 1): 0.742 µg/mL (≈ 1.37 µM); IC50 ([2]; Table 3): 0.67 µg/mL (≈ 1.23 µM); IC50 ([2]; Table 4): 1.08 µg/mL (≈ 1.99 µM); IC50 ([2]; Table 5): 1.68 µg/mL (≈ 3.09 µM); IC50 ([3]; 48 h): 0.914 µg/mL (≈ 1.68 µM); IC50 ([4]; SK-OV-3, 48 h, Table 1): 2.25 µg/mL (≈ 4.15 µM); IC50 ([4]; SK-OV-3, 48 h, Table 3): 1.31 µg/mL (≈ 2.42 µM); IC50 ([4]; SK-OV-3, 48 h, Table 4): 2.25 µg/mL (≈ 4.15 µM); IC50 ([4]; SK-OV-3, 48 h, Table 5): 1.6 µg/mL (≈ 2.94 µM); IC50 ([5]; read-out: IC50 (K562), Table 3): 0.276 µg/mL (≈ 0.508 µM); IC50 ([5]; read-out: IC50 (K562), Table 4): 0.962 µg/mL (≈ 1.77 µM); IC50 ([5]; read-out: IC50 (K562), Table 5): 0.78 µg/mL (≈ 1.44 µM)
CCOc1ccc(C(=O)N2CCc3cc(S(=O)(=O)n4cc(-c5ccccc5)[nH]c4=O)ccc32)cc1 [Example 14, 4-phenyl-1-[N-(4-ethoxybenzoyl)indoline-5-sulfonyl]-2-imidazolone]	–	–	–	–	IC50 [1, 7]: 1.28 µg/mL (≈ 2.62 µM); IC50 ([2]; Table 1): 0.445 µg/mL (≈ 0.909 µM); IC50 ([3]; Table 1, MTT, 48 hrs): 0.107 µg/mL (≈ 0.219 µM); IC50 ([4]; SK-OV-3, Table 1, 48 hrs): 0.926 µg/mL (≈ 1.89 µM)
O=C(c1cccnc1)N1CCc2cc(S(=O)(=O)n3cc(-c4ccccc4)[nH]c3=O)ccc21 [Example 15, 4-phenyl-1-(N-nicotinylindoline-5-sulfonyl)-2-imidazolone]	–	–	–	–	IC50 [1, 7]: 0.382 µg/mL (≈ 0.856 µM); IC50 ([2]; Table 1): 0.112 µg/mL (≈ 0.251 µM); IC50 ([3]; Table 1, MTT, 48 hrs): 0.015 µg/mL (≈ 0.0336 µM); IC50 ([4]; SK-OV-3, Table 1, 48 hrs): 0.446 µg/mL (≈ 0.999 µM)
O=C(c1ccco1)N1CCc2cc(S(=O)(=O)n3cc(-c4ccccc4)[nH]c3=O)ccc21 [Example 16, 4-phenyl-1-(N-furanoylindoline-5-sulfonyl)-2-imidazolone]	–	–	–	–	IC50 (Colo205) [1]: 0.460 µg/mL (≈ 1.06 µM); IC50 (A549) [2]: 0.065 µg/mL (≈ 0.149 µM); IC50 (KB) ([3]; Table 1, MTT, 48 hrs): 0.011 µg/mL (≈ 0.0253 µM); IC50 (SK-OV-3) [4]: 2.074 µg/mL (≈ 4.76 µM)
O=C(c1cccs1)N1CCc2cc(S(=O)(=O)n3cc(-c4ccccc4)[nH]c3=O)ccc21 [Example 17, 4-phenyl-1-(N-thiophenoylindoline-5-sulfonyl)-2-imidazolone]	–	–	–	–	IC50 (Colo205) [1]: 0.386 µg/mL (≈ 0.855 µM); IC50 (A549) [2]: 0.046 µg/mL (≈ 0.102 µM); IC50 (KB) ([3]; Table 1, MTT, 48 hrs): 0.008 µg/mL (≈ 0.0177 µM); IC50 (SK-OV-3) [4]: 0.729 µg/mL (≈ 1.61 µM)
O=C(CCl)Nc1ccc(C(=O)N2CCc3cc(S(=O)(=O)n4cc(-c5ccccc5)[nH]c4=O)ccc32)cc1 [Example 19, 4-phenyl-1-[N-(4-chloroacetylaminobenzoyl)indoline-5-sulfonyl]-2-imidazolone]	0.58 µg/mL (≈ 1.08 µM)	0.438 µg/mL (≈ 0.816 µM)	0.046 µg/mL (≈ 0.0857 µM)	0.202 µg/mL (≈ 0.376 µM)	–
CC1Cc2cc(S(=O)(=O)n3cc(-c4ccccc4)[nH]c3=O)ccc2N1C(=O)c1ccc(NC(=O)CCl)cc1 (stereo not shown) [Example 20, 4-phenyl-1-[N-(4-chloroacetylaminobenzoyl)-2-methylindoline-5-sulfonyl]-2-imidazolone]	0.91 µg/mL (≈ 1.65 µM)	0.509 µg/mL (≈ 0.924 µM)	0.198 µg/mL (≈ 0.359 µM)	0.598 µg/mL (≈ 1.09 µM)	–
CC1Cc2cc(S(=O)(=O)n3cc(-c4ccccc4)[nH]c3=O)ccc2N1C(=O)CCl (stereo not shown) [Example 21, 4-phenyl-1-(N-chloroacetyl-2-methylindoline-5-sulfonyl)-2-imidazolone]	0.834 µg/mL (≈ 1.93 µM)	1.13 µg/mL (≈ 2.61 µM)	1.53 µg/mL (≈ 3.54 µM)	4.71 µg/mL (≈ 10.9 µM)	–
CC(C)NCC(=O)N1c2ccc(S(=O)(=O)n3cc(-c4ccccc4)[nH]c3=O)cc2CC1C (stereo not shown) [Example 23, 4-phenyl-1-(N-isopropylaminoacetyl-2-methylindoline-5-sulfonyl)-2-imidazolone.HCl]	3.45 µg/mL	1.14 µg/mL	0.429 µg/mL	4.03 µg/mL	–
CC1Cc2cc(S(=O)(=O)n3cc(-c4ccccc4)[nH]c3=O)ccc2N1C(=O)CNC(C)(C)C (stereo not shown) [Example 27, 4-phenyl-1-(N-t-butylaminoacetyl-2-methylindoline-5-sulfonyl)-2-imidazolone.HCl]	5.68 µg/mL	1.45 µg/mL	0.317 µg/mL	2.44 µg/mL	–
C=CCNCC(=O)N1c2ccc(S(=O)(=O)n3cc(-c4ccccc4)[nH]c3=O)cc2CC1C (stereo not shown) [Example 28, 4-phenyl-1-(N-allylaminoacetyl-2-methylindoline-5-sulfonyl)-2-imidazolone.HCl]	1.05 µg/mL	0.604 µg/mL	1.12 µg/mL	1.52 µg/mL	–
CCNC(=O)N1CCc2cc(S(=O)(=O)N3CC(c4ccccc4)NC3=O)ccc21 (stereo not shown) [Example 29, 4-phenyl-1-(N-ethylcarbamoylindoline-5-sulfonyl)4,5-dihydro-2-imidazolone]	–	–	–	–	IC50 [1, 9]: 1 µg/mL (≈ 2.42 µM); IC50 ([2]; Table 3): 0.318 µg/mL (≈ 0.767 µM); IC50 ([4]; SK-OV-3, Table 3, 48 hrs): 1.95 µg/mL (≈ 4.7 µM); T/C rate (%) [6]: 113.6%; IC50 ([5]; Table 3, read-out: IC50 (K562)): 1 µg/mL (≈ 2.42 µM)
O=C(Nc1ccccc1)N1CCc2cc(S(=O)(=O)N3CC(c4ccccc4)NC3=O)ccc21 (stereo not shown) [Example 34, 4-phenyl-1-(N-phenylcarbamoylindoline-5-sulfonyl)-4,5-dihydro-2-imidazolone]	–	–	–	–	IC50 [1, 9]: 1.26 µg/mL (≈ 2.72 µM); IC50 ([2]; Table 3): 0.178 µg/mL (≈ 0.385 µM); IC50 ([4]; SK-OV-3, Table 3, 48 hrs): 0.16 µg/mL (≈ 0.346 µM); T/C rate (%) [6]: 140.9%; IC50 ([5]; Table 3, read-out: IC50 (K562)): < 0.0064 µg/mL

— patent US5932742A, “Arylsulfonylimidazolone derivatives as an antitumor agent” (priority 1996, dated 1999)
